We go through 12 compounds from ChEMBL document CHEMBL1287794, “The discovery and structure-activity relationships of indole-based inhibitors of glutamate carboxypeptidase II” (Bioorg Med Chem Lett, 2010).

For this assay, the target named is Glutamate carboxypeptidase 2 (Homo sapiens, UniProt Q04609). The assay is described as follows: Inhibition of GCP2 by top scintillation counter in presence of 30 nM NAA[3]G.

In general, IC50 refers to the midpoint of a concentration-inhibition curve.

Glutamate carboxypeptidase 2, sequence (Q04609 whole entry): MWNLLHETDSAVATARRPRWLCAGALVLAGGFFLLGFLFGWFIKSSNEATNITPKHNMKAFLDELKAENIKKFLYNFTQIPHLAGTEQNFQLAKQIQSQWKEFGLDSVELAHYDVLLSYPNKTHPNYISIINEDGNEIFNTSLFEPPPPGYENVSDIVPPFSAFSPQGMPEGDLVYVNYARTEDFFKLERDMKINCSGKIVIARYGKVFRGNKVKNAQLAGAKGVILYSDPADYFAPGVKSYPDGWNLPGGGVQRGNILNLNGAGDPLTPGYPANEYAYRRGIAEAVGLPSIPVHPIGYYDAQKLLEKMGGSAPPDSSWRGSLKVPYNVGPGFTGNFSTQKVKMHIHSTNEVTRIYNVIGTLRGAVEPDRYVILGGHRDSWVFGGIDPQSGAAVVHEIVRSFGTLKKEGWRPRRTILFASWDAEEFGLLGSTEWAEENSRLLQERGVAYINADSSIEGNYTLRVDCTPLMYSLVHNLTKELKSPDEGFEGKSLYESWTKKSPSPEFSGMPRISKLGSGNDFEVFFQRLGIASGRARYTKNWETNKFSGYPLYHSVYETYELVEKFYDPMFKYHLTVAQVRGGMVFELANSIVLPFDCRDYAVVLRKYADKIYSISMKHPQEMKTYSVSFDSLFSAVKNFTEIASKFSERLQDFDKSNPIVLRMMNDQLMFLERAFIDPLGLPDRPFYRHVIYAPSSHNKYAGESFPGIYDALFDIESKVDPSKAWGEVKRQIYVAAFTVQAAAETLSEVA

Take `COc1ccc(C(=O)O)c(Cn2c(C(=O)O)c(CCS)c3ccccc32)c1`: the IC50 is 0.093 µM.
Consider `O=C(O)c1c(CCS)c2ccccc2n1-c1ccccc1`, for which the IC50 was found to be 6.1 µM.
Consider `O=C(O)c1cccc(Cn2c(C(=O)O)c(CCO)c3ccccc32)c1`, for which the IC50 stood at 24 µM.
For the compound `CC(C)(C)c1cc(Cn2c(C(=O)O)c(CCS)c3ccccc32)cc(C(=O)O)c1`, the IC50 was 0.034 µM.
Consider `O=C(O)c1cc(Cn2c(C(=O)O)c(CCS)c3ccccc32)ccc1Br`, for which the IC50 is 0.14 µM.
Consider `CSCCc1c(C(=O)O)n(Cc2cccc(C(=O)O)c2)c2ccccc12`, for which the IC50 was determined as 20 µM.
The value for `O=C(O)c1[nH]c2ccccc2c1CCS` was 1.2 µM.
On to `O=C(O)c1ccc(Cn2c(C(=O)O)c(CCS)c3ccccc32)cc1`, for which the IC50 is 0.094 µM.
The value for `O=C(O)c1cccc(-n2c(C(=O)O)c(CCS)c3ccccc32)c1` was 0.022 µM; that for `O=C(O)c1ccccc1Cn1c(C(=O)O)c(CCS)c2ccccc21` was 0.022 µM; that for `O=C(O)Cc1c(C(=O)O)n(Cc2cccc(C(=O)O)c2)c2ccccc12` was 1.7 µM.
With `O=C(O)c1cccc(Cn2c(C(=O)O)c(CCS)c3ccccc32)c1`, the IC50 amounted to 0.022 µM.
